This passage reports inhibition results from paper PMC9516332 (Frontiers in Oncology, 2022).

What all share (assay): Kinase panel profiling at 1 µmol/L (MSA or IMAP), percentage inhibition
Common to all, as to assay type: biochemical

For assay [1], the target named is panel of 255 wild-type kinases (Homo sapiens, UniProt P08922). The settings on record: kinase ROS; 1 µmol/L single concentration; read-out: %-inhibition at 1 µmol/L, ROS.
The target of assay [2] is panel of 255 wild-type kinases (Homo sapiens, UniProt P53779). The settings on record: kinase JNK3; 1 µmol/L single concentration; read-out: %-inhibition at 1 µmol/L, JNK3.
Assay [3] addresses T1, panel of 255 wild-type kinases (Homo sapiens, UniProt P54760).
T1 sequence (P54760 16-987): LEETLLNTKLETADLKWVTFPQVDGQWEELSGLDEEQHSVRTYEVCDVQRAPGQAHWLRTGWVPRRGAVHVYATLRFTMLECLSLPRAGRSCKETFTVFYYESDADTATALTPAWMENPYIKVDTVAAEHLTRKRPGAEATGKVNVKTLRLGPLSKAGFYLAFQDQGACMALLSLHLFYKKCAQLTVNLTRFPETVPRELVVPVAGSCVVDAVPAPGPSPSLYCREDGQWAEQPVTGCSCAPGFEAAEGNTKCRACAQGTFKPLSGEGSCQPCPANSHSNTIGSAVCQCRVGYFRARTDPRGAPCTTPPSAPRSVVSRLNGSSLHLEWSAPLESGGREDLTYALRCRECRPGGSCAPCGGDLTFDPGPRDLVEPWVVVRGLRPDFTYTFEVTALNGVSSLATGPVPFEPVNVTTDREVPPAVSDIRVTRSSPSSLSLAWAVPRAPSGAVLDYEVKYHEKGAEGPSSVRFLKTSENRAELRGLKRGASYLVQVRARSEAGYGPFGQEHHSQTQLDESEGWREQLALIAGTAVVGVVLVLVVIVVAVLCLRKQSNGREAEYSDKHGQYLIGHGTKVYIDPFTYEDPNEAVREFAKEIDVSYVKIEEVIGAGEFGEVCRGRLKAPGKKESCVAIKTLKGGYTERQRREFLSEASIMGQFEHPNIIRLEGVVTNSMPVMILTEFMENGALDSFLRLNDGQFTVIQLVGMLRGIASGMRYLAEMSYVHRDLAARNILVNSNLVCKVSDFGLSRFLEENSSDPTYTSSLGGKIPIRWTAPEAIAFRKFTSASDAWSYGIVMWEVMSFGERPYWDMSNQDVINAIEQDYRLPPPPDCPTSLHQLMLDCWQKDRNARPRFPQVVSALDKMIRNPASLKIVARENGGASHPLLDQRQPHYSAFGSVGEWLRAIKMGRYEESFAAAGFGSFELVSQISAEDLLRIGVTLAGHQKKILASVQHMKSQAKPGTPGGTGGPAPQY
The settings on record: kinase EPHB4; 1 µmol/L single concentration; read-out: %-inhibition at 1 µmol/L, EPHB4.

Assay [4] concerns the target T2, panel of 255 wild-type kinases (Homo sapiens, UniProt Q05513).
T2 sequence (Q05513 1-592): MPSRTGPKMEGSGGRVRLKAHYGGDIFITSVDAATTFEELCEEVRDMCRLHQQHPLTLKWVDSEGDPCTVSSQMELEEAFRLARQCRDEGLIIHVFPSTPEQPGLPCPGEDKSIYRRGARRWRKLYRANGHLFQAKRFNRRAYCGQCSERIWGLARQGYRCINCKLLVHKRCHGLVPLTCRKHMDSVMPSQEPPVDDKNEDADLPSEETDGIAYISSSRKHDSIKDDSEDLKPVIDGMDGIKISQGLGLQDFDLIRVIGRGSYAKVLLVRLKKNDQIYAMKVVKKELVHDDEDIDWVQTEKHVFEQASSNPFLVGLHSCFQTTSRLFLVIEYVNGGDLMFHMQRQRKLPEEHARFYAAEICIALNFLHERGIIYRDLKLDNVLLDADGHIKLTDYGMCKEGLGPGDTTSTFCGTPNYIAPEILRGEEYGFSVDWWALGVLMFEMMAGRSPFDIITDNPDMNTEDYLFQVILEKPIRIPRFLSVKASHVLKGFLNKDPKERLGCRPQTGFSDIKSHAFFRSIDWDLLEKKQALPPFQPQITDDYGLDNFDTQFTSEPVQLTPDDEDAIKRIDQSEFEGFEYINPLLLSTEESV
The settings on record: kinase PKCζ; 1 µmol/L single concentration; read-out: %-inhibition at 1 µmol/L, PKCζ.

Assay [5] concerns the target T3, panel of 255 wild-type kinases (Homo sapiens, UniProt Q16832).
T3 sequence (Q16832 22-855): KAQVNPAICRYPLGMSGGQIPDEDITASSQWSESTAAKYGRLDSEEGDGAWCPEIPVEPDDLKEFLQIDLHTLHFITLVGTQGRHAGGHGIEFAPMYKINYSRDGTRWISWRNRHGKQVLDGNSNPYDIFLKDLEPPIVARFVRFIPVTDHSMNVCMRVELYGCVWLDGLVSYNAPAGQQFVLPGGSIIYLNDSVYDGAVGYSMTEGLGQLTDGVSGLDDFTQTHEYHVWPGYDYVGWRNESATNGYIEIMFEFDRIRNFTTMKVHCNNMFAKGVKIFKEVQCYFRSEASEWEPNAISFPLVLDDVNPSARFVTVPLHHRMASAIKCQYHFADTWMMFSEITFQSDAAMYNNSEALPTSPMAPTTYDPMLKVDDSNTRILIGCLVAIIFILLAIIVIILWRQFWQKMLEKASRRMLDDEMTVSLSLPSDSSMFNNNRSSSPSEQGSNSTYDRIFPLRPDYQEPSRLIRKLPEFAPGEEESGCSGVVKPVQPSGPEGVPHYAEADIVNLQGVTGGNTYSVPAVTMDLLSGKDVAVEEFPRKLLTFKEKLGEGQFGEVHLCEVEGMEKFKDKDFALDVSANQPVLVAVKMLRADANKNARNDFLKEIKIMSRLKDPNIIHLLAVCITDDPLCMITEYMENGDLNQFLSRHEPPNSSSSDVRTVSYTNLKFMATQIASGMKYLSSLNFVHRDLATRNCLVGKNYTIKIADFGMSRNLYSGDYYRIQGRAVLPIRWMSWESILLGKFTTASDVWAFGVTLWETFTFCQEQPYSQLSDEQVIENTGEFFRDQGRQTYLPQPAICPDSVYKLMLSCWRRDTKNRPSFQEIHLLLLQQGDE
The settings on record: kinase DDR2; 1 µmol/L single concentration; read-out: %-inhibition at 1 µmol/L, DDR2.

The target of assay [6] is panel of 255 wild-type kinases (Homo sapiens, UniProt Q8IU85). The settings on record: CaMK1δ kinase assay; 1 µmol/L single concentration; read-out: %-inhibition CaMK1δ.
The target of assay [7] is panel of 255 wild-type kinases (Homo sapiens, UniProt Q9UBS0). The settings on record: p70S6Kβ; 1 µmol/L single concentration; read-out: %-inhibition, p70S6Kβ.

With `FC(F)(F)c1ccc(CNc2ccc(Cc3c[nH]c4ncc(Cl)cc34)cn2)cn1` [pexidartinib], the inhibition at 1 µM in assay [1] was 37%; in assay [2], 0.454%; in assay [3], -2%; in assay [4], 13%; in assay [5], 90%; in assay [6], 4%. In assay [7], the inhibition at 1 µM was 7%.
`CO[C@]1(C(=O)N[C@@H](C)c2ccc(-n3cc(F)cn3)nc2)CC[C@H](c2nc(C)cc(Nc3cc(C)[nH]n3)n2)CC1` [pralsetinib]: the inhibition at 1 µM in assay [1] is 94%; in assay [2], 6%; in assay [3], 56%; in assay [4] it was -0.213%; in assay [5], 102%; in assay [6] it was -7.54%. Also, the inhibition at 1 µM in assay [7] was determined as 5.54%.
Consider `CCn1c(=O)c(-c2cc(NC(=O)Nc3ccccc3)c(F)cc2Br)cc2cnc(NC)cc21` [ripretinib], for which the inhibition at 1 µM in assay [1] worked out at 3.79%; in assay [2], 10%; in assay [3] it was 90%; in assay [4], 15%; in assay [5] it was 98%; in assay [6], 2.32%. Further, the inhibition at 1 µM in assay [7] was found to be 2.19%.
On to `COc1ccc(CN2C3CC2CN(c2ccc(-c4cc(OCC(C)(C)O)cn5ncc(C#N)c45)cn2)C3)cn1` [selpercatinib], for which the inhibition at 1 µM in assay [1] was 64%; in assay [2] it was -8.47%; in assay [3], 73%; in assay [4] it was -1%; in assay [5], 73%; in assay [6], 9%. The inhibition at 1 µM in assay [7] came out at 6.63%.
As for `Cn1cnc2c(F)c(Nc3ccc(Br)cc3Cl)c(C(=O)NOCCO)cc21` [selumetinib], the inhibition at 1 µM was 15% in assay [1]; 2.14% in assay [2]; 0.674% in assay [3]; 1% in assay [4]; -0.119% in assay [5]; -3.34% in assay [6]. Further, in assay [7], the inhibition at 1 µM stood at 8%.
For `Cc1cc(Nc2ncnc3ccc(NC4=NC(C)(C)CO4)cc23)ccc1Oc1ccn2ncnc2c1` [tucatinib], the inhibition at 1 µM in assay [1] was 21%; in assay [2], 1.13%; in assay [3], -0.489%; in assay [4], -1.11%; in assay [5], 10%; in assay [6], -3.73%. The inhibition at 1 µM in assay [7] worked out at 3.57%.
`C=CC(=O)N1CCC([C@@H]2CCNc3c(C(N)=O)c(-c4ccc(Oc5ccccc5)cc4)nn32)CC1` [zanubrutinib]: the inhibition at 1 µM in assay [1] was 1.9%; in assay [2] it was -8%; in assay [3] it was -2.82%; in assay [4] it was 0.367%; in assay [5], -3.23%; in assay [6] it was -1.26%. The inhibition at 1 µM in assay [7] was -0.467%.
